Results as given in patent US11839609B1, “Substituted tetrahydroisoquinolines as anti-mitotic drug in triple negative breast cancer” (Florida A&M University, priority 2021, dated 2023).

Columns and labels:
[1] = system: MDA-MB-231 cells; experiment: Cell proliferation (cell count), 6-day endpoint, Alamar blue; type: cell-based, human; settings: for concentration showing a complete blockage of cell proliferation with lack of cell toxicity: MDA-MB-231, chosen for microarray
Description: MDA-MB-231 cells (ATCC® HTB-26™) were used. These cells are human triple negative breast cancer cells, which we obtained from American Type Culture Collection (ATCC) (Manassas, VA, USA). MDA-MB-231 cells were initially brought up in ATCC-formulated Leibowitz's L-15 medium, supplemented with 10% fetal bovine serum (FBS) and penicillin/streptomycin (100 U/0.1 mg/ml). After confluence, the cells were sub-cultured and grown in Dulbecco's modified Eagle's medium (DMEM) containing phenol red, 7.5% FBS, 4 mM L-glutamine, 20 μM sodium pyruvate, and penicillin/streptomycin (100 U/0.1 mg/ml). Cells were maintained at 37° C. in 5% C02/atmosphere, and every 2-5 days, the medium was replaced and cells sub-cultured. The growth medium was used for all experiments conducted herein.
For MDA-MB-231 cells, both paclitaxel and GM-4-53 were dissolved in DMSO and […]. A stock solution for both compounds was prepped in HBSS. In brief, 96-well plates were seeded with cells (0.04×10^5/well) to a volume of 200 μL, to which drugs were added, and cell proliferation (as cell count) was evaluated at a 6-day endpoint, using Alamar blue. […] Samples were returned to the incubator for 4-6 h, and the reduction in the dye (to resorufin, a fluorescent compound) caused by viable cells was quantitatively analyzed using a Synergy HTX multi-mode reader (Bio-Tek, Winooski, VT, USA), with excitation/emission wavelength settings at 550 nm/580 nm. Cell count was evaluated as % control, and the inhibitory growth (IG50) value was calculated by regression analysis. […] The cytostatic effects of MCF-7 and Ishikawa cell lines were determined using the CellTiter-Glo (CTG) luminescent cell viability assay, which is based on the direct determination of intracellular ATP level (determining the number of viable cells in culture based on the quantification of ATP present), which signals the presence of metabolically active cells. Luminescence results were read on TriLux Luminometer. […]

[2] = system: MDA-MB-231 cells; experiment: Whole-transcriptome microarray (WT 2.1 Human), differentially expressed genes; type: cell-based; settings: 36 h; for ID1, ID3 and ID4 transcripts: GM-4-53 more significant effects than paclitaxel; for DEGs shared by both drugs (overlap) / down-regulated DEGs vs. controls / upregulated DEGs vs. controls / differentially expressed genes (DEGs) of 48,226 genes analyzed: paclitaxel 1 μg/mL, GM-4-53 5 μg/mL; for differentially expressed genes (DEGs) of 48,226 genes analyzed: FC >2 or <−2, p and FDR p <0.05
Description: For MDA-MB-231 cells, both paclitaxel and GM-4-53 were dissolved in DMSO and […]. A stock solution for both compounds was prepped in HBSS. In brief, 96-well plates were seeded with cells (0.04×10^5/well) to a volume of 200 μL, to which drugs were added, and cell proliferation (as cell count) was evaluated at a 6-day endpoint, using Alamar blue. For Alamar blue testing, a working solution of resazurin prepared in sterile phosphate-buffered saline (PBS)-phenol red (0.5 mg/mL) was added (15% v/v) to each sample in a 96-well plate. Samples were returned to the incubator for 4-6 h, and the reduction in the dye (to resorufin, a fluorescent compound) caused by viable cells was quantitatively analyzed using a Synergy HTX multi-mode reader (Bio-Tek, Winooski, VT, USA), with excitation/emission wavelength settings at 550 nm/580 nm. Cell count was evaluated as % control, and the inhibitory growth (IG50) value was calculated by regression analysis. Cytotoxicity studies were carried out at equal dose concentrations as proliferation studies at a higher plating density (0.5×10^5/well), over 24-36 h. The cytostatic effects of MCF-7 and Ishikawa cell lines were determined using the CellTiter-Glo (CTG) luminescent cell viability assay, which is based on the direct determination of intracellular ATP level (determining the number of viable cells in culture based on the quantification of ATP present), which signals the presence of metabolically active cells. Luminescence results were read on TriLux Luminometer. Optimal concentrations for microarray were established by a lack of cell toxicity, at a concentration showing a complete blockage of cell proliferation; paclitaxel (1 μg/mL) and GM-4-53 (5 μg/mL). For microarray studies, cells were plated and treated in […] flasks for 36 h.
After the experimental 36-hour time point, the cells were scraped, washed three times in ice-cold HBSS, spun down, the supernatant removed, and the remaining pellet was rapidly frozen and stored at −80° C. Total RNA was isolated and purified using the Trizol/chloroform method. The RNA quality was assessed, and concentrations were equalized to 82 ng/μI in nuclease-free water. According to the GeneChip™ WT PLUS Reagent Manual for Whole Transcript (WT) expression arrays, whole transcriptome analysis was conducted. Briefly, RNA was reverse transcribed to first strand/second strand […]. The cRNA was purified and assessed for yield before the second cycle single-stranded cDNA synthesis, hydrolysis of RNA, and purification of the second cycle single-stranded cDNA. Subsequently, cDNA was assessed for yield, fragmented, labeled, and hybridized onto the arrays before being subjected to fluidics and imaging using the Gene Atlas (Affymetrix, ThermoFisher Scientific). The array data, quality control, and initial processing from CEL to CHP files were conducted using an expression console before data evaluation using the Affymetrix transcriptome analysis console (Wiki/Kegg pathways) and protein-protein interaction (PPI) String Database (String Consortium 2020)^1. The dataset has been deposited to NIH Gene Expression OmniBus.

[3] = system: MDA-MB-231 cells; experiment: Cytotoxicity assay at high plating density, 24-36 h; type: cell-based, human; settings: 36-hour toxicity assay, equal drug concentrations, 0.5×10^5 cells/well
Description: For MDA-MB-231 cells, both paclitaxel and GM-4-53 were dissolved in DMSO and […]. A stock solution for both compounds was prepped in HBSS. In brief, 96-well plates were seeded with cells (0.04×10^5/well) to a volume of 200 μL, to which drugs were added, and cell proliferation (as cell count) was evaluated at a 6-day endpoint, using Alamar blue. For Alamar blue testing, a working solution of resazurin prepared in sterile phosphate-buffered saline (PBS)-phenol red (0.5 mg/mL) was added (15% v/v) to each sample in a 96-well plate. Samples were returned to the incubator for 4-6 h, and the reduction in the dye (to resorufin, a fluorescent compound) caused by viable cells was quantitatively analyzed using a Synergy HTX multi-mode reader (Bio-Tek, Winooski, VT, USA), with excitation/emission wavelength settings at 550 nm/580 nm. Cell count was evaluated as % control, and the inhibitory growth (IG50) value was calculated by regression analysis. […] The cytostatic effects of MCF-7 and Ishikawa cell lines were determined using the CellTiter-Glo (CTG) luminescent cell viability assay, which is based on the direct determination of intracellular ATP level (determining the number of viable cells in culture based on the quantification of ATP present), which signals the presence of metabolically active cells. Luminescence results were read on TriLux Luminometer. […]

[4] = system: MDA-MB-231 cells; experiment: 3D tumor spheroid study; type: cell-based, human; settings: GM-4-53 5 μg/mL, paclitaxel 1 μg/mL; drugs added day 14, images day 24
Description: MDA-MB-231 cells were plated in low-adhesion, round-bottom, sterile, 96-well plates at a cell density of (0.2×10^5/well), in 200 uL of cell culture media centrifuged at 1800×g for 3 min prior to incubation at 37° C. in 5% C02/atmosphere. For the first 3 days, cells were taken out and re-centrifuged at 1800×g×3 min. 3D spheroids were left to grow for 10 days. On day 14, experimental drugs were added, and images were captured on day 24.
(§1) 2D cell cultures were imaged to ascertain changes in morphological structure at the 6-day endpoint in MDA-MB-231 cells in the presence or absence of treatments. In brief, cells were fixed in 4% paraformaldehyde and incubated at 37° C. in 5% CO2/atmosphere for 15 min. After delicate removal of paraformaldehyde, sterile ultra-pure biological grade water containing 0.2% Triton X-100 was gently added to each well (100 uL) and returned to the incubator for 45 min. After gentle removal, a PBS solution containing propidium iodide (1 μg/mL) and Phalloidin-iFluor 488 Reagent (ab176753) was added to each well, according to the manufacturer's instructions Abcam (Cambridge, MA, USA), and images were captured on an inverted fluorescent microscope using the 10× and 25× fluo-objectives. 3D tumors were stained with fluorescein diacetate (live-cell dye) and countered imaged for morphology.

[5] = system: MDA-MB-231 cells; experiment: 2D imaging of cytoskeletal morphology (phalloidin/propidium iodide); type: cell-based, human; settings: day 6; GM-4-53 5 μg/mL, paclitaxel 1 μg/mL
Description: as §1

[6] = system: triple negative breast cancer (TNBC); experiment: Treatment of a TNBC patient (Example 1); type: in vivo, human; settings: therapeutically effective amount
Description: A patient presents with a lump in their left breast. A biopsy of the mass is performed and the cells are found to lack estrogen or progesterone receptors and HER2 protein thus confirming a diagnosis of triple negative breast cancer (TNBC). The patient is administered a therapeutically effective amount of 4-Ethyl-N-(7-hydroxy-3,4-dihydroisoquinolin-2(1H)-yl) benzamide (GM-4-53) for a time period sufficient to inhibit cell proliferation. The patient is tested at regular intervals while the drug is being administered as well as after administration has stopped.

[7] = system: tubulin; experiment: Tubulin polymerization/depolymerization; type: biochemical
[8] = system: MCF-7 breast cancer cell line; experiment: Cytostatic effect, CellTiter-Glo luminescent cell viability assay; type: cell-based, human; settings: MCF-7, Southern Research Institute, FIG. 4
Description: (§2) The anti-proliferative activity of GM-4-53 on two additional cell lines was evaluated at the Southern Research Institute (SRI, Birmingham, Alabama, USA). There, the human MCF-7 breast cancer cell line was purchased from the NCI. The human Ishikawa endometrial cancer cell line was purchased from Sigma Aldrich. Both cell lines were cultured in phenol red-free RPMI-1640 (Hyclone) (500 mL), supplemented with L-glutamine-dipeptide (Hyclone) (5 mL), and 10% fetal bovine serum (Atlanta Biologicals) (50 mL).
(§3) For MDA-MB-231 cells, both paclitaxel and GM-4-53 were dissolved in DMSO and […]. A stock solution for both compounds was prepped in HBSS. In brief, 96-well plates were seeded with cells (0.04×10^5/well) to a volume of 200 μL, to which drugs were added, and cell proliferation (as cell count) was evaluated at a 6-day endpoint, using Alamar blue. […] Samples were returned to the incubator for 4-6 h, and the reduction in the dye (to resorufin, a fluorescent compound) caused by viable cells was quantitatively analyzed using a Synergy HTX multi-mode reader (Bio-Tek, Winooski, VT, USA), with excitation/emission wavelength settings at 550 nm/580 nm. Cell count was evaluated as % control, and the inhibitory growth (IG50) value was calculated by regression analysis. […] Luminescence results were read on TriLux Luminometer. […]

[9] = system: Ishikawa endometrial cancer cell line; experiment: as above; type: cell-based, human; settings: Southern Research Institute, FIG. 4
Description: as §2, §3

[10] = Solubility; type: physicochemical

With `CC(=O)O[C@H]1C(=O)[C@@]2(C)[C@H]([C@H](OC(=O)c3ccccc3)[C@]3(O)C[C@H](OC(=O)[C@H](O)[C@@H](NC(=O)c4ccccc4)c4ccccc4)C(C)=C1C3(C)C)[C@]1(OC(C)=O)CO[C@@H]1C[C@@H]2O` [paclitaxel, reference compound] the “concentration showing a complete blockage of cell proliferation with lack of cell toxicity” value [1] was 1 µg/mL, the “amphiregulin (AREG) and epiregulin (EREG) mRNA” value [2] was “significantly downregulated” and the “expression of COX2” value [2] was “downregulated the expression”. For the same compound, the “expression of ICAM-1” value [2] was “reduced the expression”, the “ID1, ID3 and ID4 transcripts” value [2] was “pronounced downregulation” and the “DEGs shared by both drugs (overlap)” value [2] was 52. For the same compound, the “down-regulated DEGs vs. controls” value [2] was 45, the “upregulated DEGs vs. controls” value [2] was 108 and the “differentially expressed genes (DEGs) of 48,226 genes analyzed” value [2] was 153. For the same compound, the cytotoxic effects [3] was “no cytotoxic effects”, the “effect on 3D tumor spheroid” value [4] was “halt the growth of the spheroid and central core” and the “morphological changes of actin cytoskeleton” value [5] was “abnormally large-shaped extended actin networks”.
With `CCc1ccc(C(=O)NN2CCc3ccc(O)cc3C2)cc1` [GM-4-53, 4-Ethyl-N-(7-hydroxy-3,4-dihydroisoquinolin-2(1H)-yl)benzamide] the IC50 ([1]; Homo sapiens, 144 h, MDA-MB-231, 6-day growth study, regression analysis, read-out: anti-proliferative IG50 growth inhibitory concentration) was 0.261 µM, the “concentration showing a complete blockage of cell proliferation with lack of cell toxicity” value [1] was 5 µg/mL and the patient outcome [6] was “deemed in remission”. The “effect on tubulin nucleation” value [7] was “only mild effects”, the “effect on tubulin polymerization/depolymerization processes” value [7] was “failed to show any effect” and the “amphiregulin (AREG) and epiregulin (EREG) mRNA” value [2] was “significantly downregulated”. The “expression of COX2” value [2] was “downregulated the expression”, the “expression of ICAM-1” value [2] was “reduced the expression” and the “oncogenic transcription factors (FOS, JUN-b, NFKB1a) driving oncostatin M (OSM) signaling” value ([2]; vs untreated controls) was “general loss”. The “ID1, ID3 and ID4 transcripts” value [2] was “pronounced downregulation”, the KLRC3 transcript ([2]; greater extent in GM-4-53) was “loss of the KLRC3 transcript” and the “DEGs shared by both drugs (overlap)” value [2] was 52. For the same compound, the “down-regulated DEGs vs. controls” value [2] was 168, the “upregulated DEGs vs. controls” value [2] was 75 and the “differentially expressed genes (DEGs) of 48,226 genes analyzed” value [2] was 243. For the same compound, the cytotoxic effects [3] was “no cytotoxic effects”, the “IG50 (cytostatic growth-inhibitory effect)” value [8] was “mid-to-high” and the “IG50 (cytostatic growth-inhibitory effect)” value [9] was “mid-to-high”. The solubility [10] was “excellent solubility”, the “effect on 3D tumor spheroid” value [4] was “halts the growth and appears to penetrate the tumor core” and the “morphological changes of actin cytoskeleton” value [5] was “abnormally large-shaped extended actin networks”.
